According to patent publication US20230174521A1, “NOVEL DIACYLGLYCERIDE O-ACYLTRANSFERASE 2 INHIBITORS” (Merck Sharp & Dohme LLC, priority 2020, published 2023):

molecular target: T1, human DGAT2 (hDGAT2) (Homo sapiens, UniProt Q96PD7); test: DGAT2 enzymatic activity assay (LC/MS/MS detection of 13C18-triolein, Sf-9 membrane prep); assay type: biochemical; conditions: hDGAT2 Sf-9 membrane, 25 μM diolein, 5 μM 13C oleoyl-CoA, rt
T1 construct: made in house; host or cells: Sf-9 insect cells (baculovirus infection); membrane fraction
T1 sequence (Q96PD7 1-388): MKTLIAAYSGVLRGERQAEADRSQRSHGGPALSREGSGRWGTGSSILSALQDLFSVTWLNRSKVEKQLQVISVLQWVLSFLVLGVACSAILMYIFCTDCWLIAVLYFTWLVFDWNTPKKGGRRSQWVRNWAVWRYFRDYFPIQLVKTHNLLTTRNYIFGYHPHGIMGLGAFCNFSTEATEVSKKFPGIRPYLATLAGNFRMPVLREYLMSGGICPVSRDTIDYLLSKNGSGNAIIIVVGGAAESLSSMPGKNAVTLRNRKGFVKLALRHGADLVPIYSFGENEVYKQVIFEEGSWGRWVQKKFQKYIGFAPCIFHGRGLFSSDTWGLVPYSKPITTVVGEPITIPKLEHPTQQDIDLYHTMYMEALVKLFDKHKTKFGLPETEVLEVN
Method: Sf-9 insect cells were maintained in Grace's insect cell culture medium with 10% heated-inactivated fetal bovine serum, 1% Pluronic F-68 and 0.14 μg/ml Kanamycine sulfate at 27° C. in a shaker incubator. After infection with untagged baculovirus expressing human DGAT2 (hDGAT2) at multiplicity of infection (MOI) 3 for 48 hours, cells were harvested. Cell pellets were suspended in buffer containing 10 mM Tris-HCl pH 7.5, 1 mM EDTA, 250 mM sucrose and Complete Protease Inhibitor Cocktail (Sigma Aldrich), and sonicated on ice. Cell debris were removed by centrifugation at 2000×g for 15 minutes. Membrane fractions were isolated by ultracentrifugation (100,000×g), resuspended in the same buffer, and frozen (−80° C.) for later use. The protein concentration was determined with the Pierce™ BCA Protein Assay Kit (Thermo Fisher Scientific). Expression of protein levels was analyzed by immunoblotting with rabbit anti-DGAT2 antibody (Abcam, ab102831) and donkey anti-rabbit IgG H&L Alexa Fluor® 647 (Abcam, ab150075) followed by detection using Typhoon FLA9000 (GE Healthcare).
LC/MS/MS analyses were performed using Thermal Fisher's LX4-TSQ Vantage system. This system consists of an Agilent binary high-performance liquid chromatography (HPLC) pumps and a TSQ Vantage triple quadrupole MS/MS instrument. For each sample, 2 μL samples from the top organic layer of in-plate liquid-liquid extraction were injected onto a Thermo Betabasic C4 column (2.1 mm×20 mm, 5 μm particle size). The samples were then eluted using the following conditions; mobile phase: Isopropanol: acetonitrile/10 mM ammonium formate=50/35/15 (v/v/v), flow rate: 0.8 mL/min, temperature: 25° C. Data was acquired in positive mode using a heated electrospray ionization (HESI) interface. The operational parameters for the TSQ Vantage MS/MS instrument were a spray voltage of 3000 V, capillary temperature of 280° C., vaporizer temperature 400° C., sheath gas 45 arbitrary unit, Aux gas 10 arbitrary units, S-lens 165 and collision gas 1.0 mTorr. […] (SRM) chromatograms of ^13C18-triolein (Q1: 920.8>Q3:621.3) and internal standard ^13C21-triolein (Q1: 923.8>Q3:617.3) were collected for 33 sec. The peak area was integrated by Xcalibur Quan software. The ratio between the ^13C18triolein generated in the reaction and spiked in internal standard ^13C21-triolein was used to generate percentage inhibition and IC50 values. Compound percentage inhibition was calculated by the following formula: Inhibition %=1−[(compound response−low control)/(high control−low control)]×100%. Potent compounds were titrated and IC50 were calculated by 4 parameter sigmoidal curve fitting formula.
DGAT2 activity was determined by measuring the amount of enzymatic product ^13C18-triolein (^13C-1,2,3-Tri(cis-9-octadecenoyl)glycerol) using the membrane prep mentioned above. The assay was carried out in ABgene 384-well assay plates in a final volume of 25 μL at rt. The assay mixture contained the following: assay buffer (100 mM Tris.Cl, pH 7.0, 20 mM MgCl2, 5% ethanol), 25 μM of diolein, 5 μM of ^13C oleoyl-CoA and 8 ng/μL of DGAT2 membrane.

Compound	IC50
CC1(NC(=O)c2ccc3c(c2)c(C(F)F)nn3-c2cccc(OC(F)F)c2)CS(=O)(=O)C1 [Example 32, 1-(3-(difluoromethoxy)phenyl)-3-(difluoromethyl)-N-(3-methyl-1,1-dioxidothietan-3-yl)-1H-indazole-5-carboxamide]	24 nM
CCC(O)c1nn(-c2cccc(OC(F)F)c2)c2ccc(C(=O)NC3(C)CS(=O)(=O)C3)cc12 (racemic) [Example 28, 1-(3-(difluoromethoxy)phenyl)-3-(1-hydroxypropyl)-N-(3-methyl-1,1-dioxidothietan-3-yl)-1H-indazole-5-carboxamide]	78 nM
CC1(NC(=O)c2ccc3c(c2)c(C2(O)CCOCC2)nn3-c2cccc(OC(F)F)c2)CS(=O)(=O)C1 [Example 22]	51 nM
CC1(NC(=O)c2cnc3c(c2)c(C(C)(C)O)nn3-c2cc(OC(F)F)ccc2F)CS(=O)(=O)C1 [Example 41, l-(5-(difluoromethoxy)-2-fluorophenyl)-3-(2-hydroxypropan-2-yl)-N-(3-methyl-1,1-dioxidothietan-3-yl)-1H-pyrazolo[3,4-b]pyridine-5-carboxamide]	25 nM
Cc1ncc(OC(F)F)cc1-n1nc(CC(C)(C)O)c2cc(C(=O)NC3(C)CS(=O)(=O)C3)cnc21 [Example 25, l-(5-(difluoromethoxy)-2-methylpyridin-3-yl)-3-(2-hydroxy-2-methylpropyl)-N-(3-methyl-1,1-dioxidothietan-3-yl)-1H-pyrazolo[3,4-b]pyridine-5-carboxamide]	705 nM
C[C@]1(NC(=O)c2ccc3c(c2)c(N2CCC[C@H]2C(=O)O)nn3-c2cccc(OC(F)F)c2)CCS(=O)(=O)C1 [Example 49, (2S)-1-[1-[3-(difluoromethoxy)phenyl]-5-[[(3S)-3-methyl-1,1-dioxo-thiolan-3-yl]carbamoyl]indazol-3-yl]pyrrolidine-2-carboxylic acid]	351 nM
CC1(NC(=O)c2cnc3c(c2)c(C(C)(C)O)nn3-c2cc(OC(F)F)ncc2F)CS(=O)(=O)C1 [Example 46, l-(2-(difluoromethoxy)-5-fluoropyridin-4-yl)-3-(2-hydroxypropan-2-yl)-N-(3-methyl-1,1-dioxidothietan-3-yl)-1H-pyrazolo[3,4-b]pyridine-5-carboxamide]	31 nM

The next molecules have a lower IC50 than those just listed; values first:

IC50	Compound
9.3 nM	CC(C)c1nn(-c2cccc(OC(F)F)c2)c2ncc(C(=O)NC3(C)CS(=O)(=O)C3)cc12 [Example 12]
5.1 nM	CC1(NC(=O)c2ccc3c(c2)c(C(O)C2CC2)nn3-c2cccc(OC(F)F)c2)CS(=O)(=O)C1 (single isomer, unassigned) [Example 29a, 3-[cyclopropyl(hydroxy)methyl] - 1-[3-(difluoromethoxy)phenyl]-N-(3-methyl-1,1-dioxo-thietan-3-yl)indazole-5-carboxamide]
15 nM	CC1(NC(=O)c2cnc3c(c2)c(C2(O)CCC2)nn3-c2cccc(OC(F)F)c2)CS(=O)(=O)C1 [Example 39, l-(3-(difluoromethoxy)phenyl)-3-(l-hydroxycyclobutyl)-N-(3-methyl-1,1-dioxidothietan-3-yl)-lH-pyrazolo[3,4-b]pyridine-5-carboxamide]
14 nM	CC1(NC(=O)c2cnc3c(c2)c(C(C)(C)O)nn3-c2cc(OC(F)(F)F)ccc2F)CS(=O)(=O)C1 [Example 40, l-(2-fluoro-5-(trifluoromethoxy)phenyl)-3-(2-hydroxypropan-2-yl)-N-(3-methyl-1,1-dioxidothietan-3-yl)-1H-pyrazolo[3,4-b]pyridine-5-carboxamide]
